Results on 14 compounds are retold here after patent US9815851B2, “Pyrrolo carboxamides as modulators of orphan nuclear receptor RAR-related orphan receptor-gamma (RORγ, NR1F3) activity and for the treatment of chronic inflammatory and autoimmune diseases” (PHENEX PHARMACEUTICALS AG, priority 2011, dated 2017).

Structures are written as SMILES. Where two headings read alike, the source gives them in different places. Where only a bound is given, the exact number is not on record here.

One experiment deals with T1, RORγ (UniProt P51449).
T1 sequence (P51449 1-518): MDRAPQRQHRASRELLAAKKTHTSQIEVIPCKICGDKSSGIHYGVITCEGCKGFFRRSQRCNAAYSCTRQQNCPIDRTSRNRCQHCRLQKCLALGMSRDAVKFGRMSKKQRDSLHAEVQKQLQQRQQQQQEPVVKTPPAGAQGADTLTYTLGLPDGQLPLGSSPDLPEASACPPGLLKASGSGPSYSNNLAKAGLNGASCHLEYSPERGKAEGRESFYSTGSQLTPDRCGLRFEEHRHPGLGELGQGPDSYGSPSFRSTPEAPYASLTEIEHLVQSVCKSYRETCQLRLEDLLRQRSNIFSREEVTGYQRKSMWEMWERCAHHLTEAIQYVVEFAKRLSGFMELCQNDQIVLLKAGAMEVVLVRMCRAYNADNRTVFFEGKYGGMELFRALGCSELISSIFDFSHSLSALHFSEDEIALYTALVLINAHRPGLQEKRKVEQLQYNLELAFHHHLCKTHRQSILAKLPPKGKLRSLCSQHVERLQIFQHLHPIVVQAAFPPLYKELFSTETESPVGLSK
As to the kind of experiment: RORγ Gal4 Reporter Gene Assay in 293T cells (firefly and renilla luciferase). It is filed as cell-based, human.

Experiment [1] addresses T2, RORγ ligand binding domain (LBD) (Homo sapiens, UniProt P51449).
T2 construct: made in house; host or cells: E. coli BL-21 (BL3), vector pDEST15
T2 sequence (P51449 269-508 limits assumed): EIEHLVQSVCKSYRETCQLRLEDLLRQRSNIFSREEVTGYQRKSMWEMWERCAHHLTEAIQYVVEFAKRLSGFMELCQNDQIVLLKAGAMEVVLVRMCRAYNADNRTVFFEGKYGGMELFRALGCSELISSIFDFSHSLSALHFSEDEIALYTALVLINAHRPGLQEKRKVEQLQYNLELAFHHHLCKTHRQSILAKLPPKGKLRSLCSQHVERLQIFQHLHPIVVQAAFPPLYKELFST
As to the kind of experiment: TR-FRET Activity Assay (ligand sensing, RORγ-LBD / coactivator peptide interaction, LANCE). It is filed as biochemical.

[2] abbreviates: second value of the cell, Gal4 reporter gene assay in 293T cells, firefly luciferase.
Where [3] appears, read: third value of the cell, Gal4 reporter gene assay in 293T cells, renilla normalised luciferase.
The mark [4] stands for this setting: first value of the cell FRET/FF/REN, TR-FRET activity assay, read-out: pIC50 (FRET) (converted).

With `CCC(C)(C)NS(=O)(=O)c1ccc(-c2cc(C(=O)NC3CCOCC3)c(C)n2CC2CCCCC2)cc1C(F)(F)F` [17/83], on RORγ (setting [2]), the “pIC50 (FF)” value stood at 8.2. Besides, the “pIC50 (REN)” value at RORγ (setting [3]) was 8.3. Also, the IC50 in experiment [1] (setting [4]) is 0.126 µM.

On to `Cc1c(C(=O)NC2CCOCC2)cc(-c2cc3c(c(C(C)(C)C)c2)OCCC3O)n1CC1CCCCC1` (stereo not drawn) [17/105], for which the “pIC50 (FF)” value at RORγ (setting [2]) came out at 6.1. In addition, the “pIC50 (REN)” value against RORγ (setting [3]) was 6.3. For the same compound, in experiment [1] (setting [4]), the IC50 is 2 µM.

On to `Cc1c(C(=O)NCC(C)(C)C(=O)NS(C)(=O)=O)cc(-c2cc(C(C)(C)C)c3c(c2)C2(CCO3)CC2)n1CC1CCCCC1` [17/26], for which the “pIC50 (FF)” value on RORγ (setting [2]) is recorded as 7.3. Also, on RORγ (setting [3]), the “pIC50 (REN)” value came out at 7.3. The IC50 in experiment [1] (setting [4]) is 1.58 µM.

Turning to `Cc1c(C(=O)NC2CCOCC2)cc(-c2ccc(S(=O)(=O)NC3CCC3)c(C(C)(C)C)c2)n1CC1CCCCC1` [17/228], at RORγ (setting [2]), the “pIC50 (FF)” value was 7.7. The “pIC50 (REN)” value against RORγ (setting [3]) is reported as 7.7. In addition, in experiment [1] (setting [4]), the IC50 was 0.398 µM.

For `Cc1c(C(=O)NCC2COC2)cc(-c2cc(C(C)(C)C)cc(C(C)(C)C)c2)n1CC1CCCCC1` [17/43], the “pIC50 (FF)” value on RORγ (setting [2]) amounted to 7.4. Further, the “pIC50 (REN)” value against RORγ (setting [3]) came to 7.4. Also, the IC50 in experiment [1] (setting [4]) was 0.2 µM.

Take `Cc1c(C(=O)NCC2CCN(S(C)(=O)=O)CC2)cc(-c2cc(C(C)(C)C)cc(C3(C)CC3)c2)n1CC1CCCCC1` [17/345]: the “pIC50 (FF)” value at RORγ (setting [2]) worked out at 7.3. The “pIC50 (REN)” value against RORγ (setting [3]) is recorded as 7.4. Besides, the IC50 in experiment [1] (setting [4]) was 0.316 µM.

For `Cc1c(C(=O)NC2CCOCC2)cc(-c2ccc(-c3ccnn3C(C)C)c(C(C)(C)C)c2)n1CC1CCCCC1` [Example 26, 5-(3-(tert-Butyl)-4-(1-isopropyl-1H-pyrazol-5-yl)phenyl)-1-(cyclohexylmethyl)-2-methyl-N-(tetrahydro-2H-pyran-4-yl)-1H-pyrrole-3-carboxamide], the “pIC50 (FF)” value against RORγ (setting [2]) was 7.5. Further, the “pIC50 (REN)” value against RORγ (setting [3]) turned out to be 7.6. The IC50 in experiment [1] (setting [4]) is 0.2 µM.

Regarding `Cc1c(C(=O)NC2C[S+]([O-])C2)cc(-c2cc(C(C)(C)C)cc(C(C)(C)C)c2)n1CC1CCCCC1` (stereo not drawn) [Example 2, 1-(Cyclohexylmethyl)-5-(3,5-di-tert-butylphenyl)-2-methyl-N-(1-oxidothietan-3-yl)-1H-pyrrole-3-carboxamide], the “pIC50 (FF)” value against RORγ (setting [2]) is recorded as 7.0. In addition, the “pIC50 (REN)” value against RORγ (setting [3]) amounted to 7.0. In addition, the IC50 in experiment [1] (setting [4]) was 0.251 µM.

For the compound `Cc1c(C(=O)N[C@H]2C[C@H](C(=O)O)C2)cc(-c2cc(C(C)(C)O)cc3ccccc23)n1CC1CCCCC1` [17/187], the “pIC50 (FF)” value on RORγ (setting [2]) was less than 4.7. In addition, the “pIC50 (REN)” value against RORγ (setting [3]) was less than 4.7. In addition, the IC50 in experiment [1] (setting [4]) was 15.8 µM.

As to `Cc1c(C(=O)NCCCS(C)(=O)=O)cc(-c2cc(C(C)(C)C)c3c(c2)C2(CCO3)CC2)n1CC1CCCCC1` [17/80], the “pIC50 (FF)” value against RORγ (setting [2]) stood at 6.9. The “pIC50 (REN)” value on RORγ (setting [3]) amounted to 7.0. Also, the IC50 in experiment [1] (setting [4]) is 0.501 µM.

On to `Cc1cc(-c2cc(C(=O)NC3CCOCC3)c(C)n2CC2CCCCC2)cc(C(F)(F)F)c1S(=O)(=O)NC(C)(C)C` [17/232], for which, at RORγ, the “pIC50 (FF)” value was 6.1/6.8/7.0 and the “pIC50 (REN)” value is on record as 6.1/6.8/7.0. The same compound showed an IC50 in experiment [1] of 0.794 µM.

As to `Cc1c(C(=O)NCC(C)(C)C(=O)N(C)C)cc(-c2cc(C(C)(C)C)c3c(c2)C2(CCO3)CC2)n1CC1CCCCC1` [11/2], at RORγ (setting [2]), the “pIC50 (FF)” value is on record as 6.9. In addition, the “pIC50 (REN)” value on RORγ (setting [3]) is 6.9. Moreover, the IC50 in experiment [1] (setting [4]) is 0.251 µM.

For the compound `CC(C)(C)NS(=O)(=O)c1ccc(-c2cc(C(=O)NC3CCOCC3)c(Cl)n2CC2CCCCC2)cc1C(C)(C)C` [17/119], the “pIC50 (FF)” value at RORγ (setting [2]) was found to be 7.6. Besides, at RORγ (setting [3]), the “pIC50 (REN)” value is on record as 7.7. Besides, the IC50 in experiment [1] (setting [4]) was 0.501 µM.

For the compound `Cc1c(C(=O)NC2COC2)cc(-c2cc(C(C)(C)C)cc(C(C)(C)C)c2)n1CC1CCC(C)CC1` (stereo not drawn) [1/114], on RORγ (setting [2]), the “pIC50 (FF)” value stood at 6.7. The “pIC50 (REN)” value on RORγ (setting [3]) was found to be 6.8. Also, in experiment [1] (setting [4]), the IC50 was 0.251 µM.
